Measurements: patent US20210070747A1, “2(1H)-QUINOLINONE DERIVATIVE” (priority 2017, published 2021)
Converted amounts (≈) assume the structure as drawn. Structures can show the parent of a compound that is named as a salt. Where two headings read alike, the source gives them in different places.

How the values were obtained:
[1] = molecular target: T1, E. coli DNA gyrase (Escherichia coli, UniProt P0AES6); experiment: Test for evaluating the activity of inhibiting E. coli DNA gyrase enzyme (Method 1, supercoiling, Inspiralis enzyme); assay type: biochemical
T1 construct: made in house; host or cells: E. coli BL21 (DE3)
Procedure: Test Example 1-1 Test for Evaluating the Activity of Inhibiting E. coli DNA Gyrase Enzyme (Method 1)
The enzymatic activity of E. coli DNA gyrase was measured by a method comprising reacting DNA gyrase and its substrate, relaxed pBR322 (Inspiralis), in the presence of ATP and detecting the post-reaction supercoiled pBR322/relaxed pBR322 ratio with H19 (Profoldin).
Specifically, to 1 ng/μL of relaxed pBR322, E. coli DNA gyrase enzyme (Inspiralis) was added at a final concentration of 0.006 U/μL and the mixture was incubated for 60 minutes at room temperature. This reaction was carried out in 20 mmol/L tris-HCl buffered solution (pH 8.0) comprising 0.5 mmol/L ATP, 0.005% bridge 35, 35 mmol/L ammonium acetate, 8 mmol/L magnesium chloride, 4.6% glycerol, and 1 mmol/L dithiothreitol. To the reaction mixture, H19 was added to bring the reaction to an end; thereafter, the supercoiled pBR322/relaxed pBR322 ratio was detected at excitation wavelength/emission wavelength=485 nm/535 nm. An inhibition curve was obtained by allowing the analyte compound to be present at varying concentrations during the reaction described above. […] The test results of interest are shown in [Table 20-1] and [Table 20-2].

[2] = tested on: E. Coli ATCC 25922; experiment: Test for evaluating antibacterial activity (E. coli), broth microdilution MIC; assay type: cell-based; settings: Escherichia coli, ATCC25922; 35° C., 18 hours, cation-adjusted Mueller-Hinton medium
In short: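 Broth microdilution per modified CLSI method in cation-adjusted Mueller-Hinton medium. Inoculum from overnight heart infusion agar growth, McFarland 0.5 suspension diluted 10-fold; incubation 35° C for 18 hours. MIC taken as lowest drug concentration with no visible growth.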

[3] = Method 1, read-out: E. Coli Gyrase supercoiling IC50

`CNc1cc(F)cc2cc(C(=O)Nc3ccc(C(=O)N(C)CCN4CCOCC4)cc3)c(=O)[nH]c12` [Example 67, 6-fluoro-8-(methylamino)-N-(4-{methyl[2-(morpholine-4-yl)ethyl]carbamoyl}phenyl)-2-oxo-1,2-dihydroquinoline-3-carboxamide] showed an IC50 [1, 3] of 6.36 nM and an MIC [2] greater than 16 µg/mL.

In the case of `CNc1cccc2cc(C(=O)NC3CN(c4ncc(C(=O)O)s4)C3)c(=O)[nH]c12` [Example 10, 2-(3-{[8-(methylamino)-2-oxo-1,2-dihydroquinoline-3-carbonyl]amino}azetidine-1-yl)-1,3-thiazole-5-carboxylic acid], the IC50 [1, 3] is reported as 459 nM and the MIC [2] is reported as greater than 64 µg/mL.

`CNc1cc(F)cc2cc(C(=O)Nc3cnc(C(=O)NCCO)nc3)c(=O)[nH]c12` [Example 71, 6-Fluoro-N-[2-[(2-hydroxyethyl)carbamoyl]pyrimidin-5-yl]-8-(methylamino)-2-oxo-1,2-dihydroquinoline-3-carboxamide] gave an IC50 [1, 3] of 0.88 nM and an MIC [2] greater than 8 µg/mL.

`CNc1cc(F)cc2cc(C(=O)Nc3ccc(C(=O)NCC4CCN(CCN)CC4)cc3)c(=O)[nH]c12` [Example 57, N-(4-({[1-(2-aminoethyl)piperidine-4-yl]methyl}carbamoyl)phenyl]-6-fluoro-8-(methylamino)-2-oxo-1,2-dihydroquinoline-3-carboxamide-dihydrochloride] showed an IC50 [1, 3] of 3.62 nM and an MIC [2] greater than 16 µg/mL.

Compound `CNc1cc(F)cc2cc(C(=O)Nc3ccc(C(=O)O)cc3CNCCO)c(=O)[nH]c12` [Example 74, 4-{[6-fluoro-8-(methylamino)-2-oxo-1,2-dihydroquinoline-3-catbonyl]amino}-3-{[(2-hydroxyethyl)amino]methyl} benzoic acid-hydrochloride] has an IC50 [1, 3] of 129 nM and an MIC [2] greater than 64 µg/mL.

For `CNc1cccc2cc(C(=O)Nc3cccnc3)c(=O)[nH]c12` [Example 15, 8-(methylamino)-2-oxo-N-(pyridine-3-yl)-1,2-dihydroquinoline-3-carboxamide], the IC50 [1, 3] was 35.9 nM and the MIC [2] was greater than 64 µg/mL.

For `CNc1cccc2cc(C(=O)Nc3cncnc3)c(=O)[nH]c12` [Example 12, 8-(methylamino)-2-oxo-N-(pyrimidine-5-yl)-1,2-dihydroquinoline-3-carboxamide], the IC50 [1, 3] was 21.1 nM and the MIC [2] was greater than 64 µg/mL.

For `CNc1cc(F)cc2cc(C(=O)Nc3cnc(OCCN4CCOCC4)nc3)c(=O)[nH]c12` [Example 80, 6-fluoro-8-(methylamino)-N-{2-[2-(morpholine-4-yl)ethoxy]pyrimidine-5-yl}-2-oxo-1,2-dihydroquinoline-3-carboxamide], the IC50 [1, 3] was 2.5 nM and the MIC [2] was greater than 16 µg/mL.

For `CNc1cc(F)cc2cc(C(=O)Nc3cnc(C(=O)OC)nc3)c(=O)[nH]c12` [Example 63, methyl 5-{[6-fluoro-8-(methylamino)-2-oxo-1,2-dihydroquinoline-3-carbonyl]amino}pyrimidine-2-carboxylate], the IC50 [1] was 1.44 nM and the MIC [2] was greater than 16 µg/mL.

`CNc1cc(F)cc2cc(C(=O)Nc3ccc(C(=O)NCCN4CCOCC4)cc3CN(C)C3CCCCC3)c(=O)[nH]c12` [Example 75, N-(2-{[cyclohexyl(methyl)amino]methyl}-4-{[2-(morpholine-4-yl)ethyl]carbamoyl}phenyl)-6-fluoro-8-(methylamino)-2-oxo-1,2-dihydroquinoline-3-carboxamide] gave an IC50 [1, 3] of 0.25 nM and an MIC [2] of 8 µg/mL (≈ 13.5 µM).

Work on `CNc1cccc2cc(C(=O)NCCc3cccnc3)c(=O)[nH]c12` [Example 30, 8-(methylamino)-2-oxo-N-[2-(pyridine-3-yl)ethyl]-1,2-dihydroquinoline-3-carboxamide] yielded an IC50 [1, 3] of 216 nM and an MIC [2] greater than 16 µg/mL.

`CNc1cccc2cc(C(=O)Nc3ccc(C(=O)NCCC[C@H](N)C(=O)O)cc3)c(=O)[nH]c12` [Example 49, N5-(4-{[8-(methylamino)-2-oxo-1,2-dihydroquinoline-3-carbonyl]amino}benzoyl)-L-ornithine] was tested, and the IC50 [1, 3] was 20.4 nM and the MIC [2] was greater than 8 µg/mL.

With `CNc1cc(F)cc2cc(C(=O)Nc3cnc(NCCN4CCOCC4)nc3)c(=O)[nH]c12` [Example 69, 6-fluoro-8-(methylamino)-N-(2-{[2-(morpholine-4-yl)ethyl]amino}pyrimidine-5-yl)-2-oxo-1,2-dihydroquinoline-3-carboxamide] the IC50 [1, 3] was 7 nM and the MIC [2] was 8 µg/mL (≈ 18.1 µM).

With `CNc1cccc2cc(C(=O)Nc3ccc(C(=O)N4CCOCC4)cc3)c(=O)[nH]c12` [Example 43, 8-(methylamino)-N-[4-(morpholine-4-catbonyl)phenyl]-2-oxo-1,2-dihydroquinoline-3-carboxamide] the IC50 [1, 3] was 176 nM and the MIC [2] was greater than 32 µg/mL.

With `CNc1cccc2cc(C(=O)Nc3cnc(N4CCC(N)CC4)nc3)c(=O)[nH]c12.O=CO` [Example 45, N-[2-(4-aminopiperidine-1-yl)pyrimidine-5-yl]-8-(methylamino)-2-oxo-1,2-dihydroquinoline-3-carboxamide-formate] the IC50 [1] was 101 nM and the MIC [2] was greater than 16 µg/mL.

With `CNc1cc(F)cc2cc(C(=O)Nc3cnc(N4CC(N)C4)nc3)c(=O)[nH]c12.O=CO` [Example 60, N-[2-(3-aminoazetidine-1-yl)pyrimidine-5-yl]-6-fluoro-8-(methylamino)-2-oxo-1,2-dihydroquinoline-3-carboxamide-formate] the IC50 [1] was 11.8 nM and the MIC [2] was greater than 32 µg/mL.

`CNc1cccc2cc(C(=O)NC3CCN(c4nccs4)C3)c(=O)[nH]c12` (centres unmarked) [Example 23, 8-(methylamino)-2-oxo-N-[1-(1,3-thiazole-2-yl)pyrrolidine-3-yl]-1,2-dihydroquinoline-3-carboxamide] gave an IC50 [1, 3] of 697 nM and an MIC [2] greater than 4 µg/mL.

Work on `CNc1cccc2cc(C(=O)NCc3csc(NC(=O)OC(C)(C)C)n3)c(=O)[nH]c12` [Example 27, tert-butyl[4-({[8-(methylamino)-2-oxo-1,2-dihydroquinoline-3-carbonyl]amino}methyl)-1,3-thiazole-2-yl]carbamate] yielded an IC50 [1, 3] of 258 nM and an MIC [2] greater than 8 µg/mL.

`CNc1cc(F)cc2cc(C(=O)Nc3cnc(C(=O)NCCN4CCOCC4)nc3)c(=O)[nH]c12` [Example 53, 6-fluoro-8-(methylamino)-N-(2-{[2-(morpholine-4-yl)ethyl]carbamoyl}pyrimidine-5-yl)-2-oxo-1,2-dihydroquinoline-3-carboxamide] showed an IC50 [1, 3] of 1.49 nM and an MIC [2] of 0.25 µg/mL (≈ 0.533 µM).

`CNc1cccc2cc(C(=O)Nc3ccc(C(=O)NCCN4CCOCC4)cc3)c(=O)[nH]c12` [Example 26, 8-(methylamino)-N-(4-{[2-(morpholine-4-yl)ethyl]carbamoyl}phenyl)-2-oxo-1,2-dihydroquinoline-3-carboxamide] gave an IC50 [1, 3] of 17.8 nM and an MIC [2] greater than 32 µg/mL.

Work on `CNc1cccc2cc(C(=O)Nc3ccccc3)c(=O)[nH]c12` [Example 11, 8-(methylamino)-2-oxo-N-phenyl-1,2-dihydroquinoline-3-carboxamide] yielded an IC50 [1, 3] of 245 nM and an MIC [2] greater than 64 µg/mL.

With `CNc1cc(F)cc2cc(C(=O)Nc3cnccc3C)c(=O)[nH]c12` [Example 73, 6-fluoro-8-(methylamino)-N-(4-methylpyridine-3-yl)-2-oxo-1,2-dihydroquinoline-3-carboxamide] the IC50 [1, 3] was 23 nM and the MIC [2] was greater than 8 µg/mL.

`CNc1cc(F)cc2cc(C(=O)NCCc3cccnc3)c(=O)[nH]c12` [Example 64, 6-fluoro-8-(methylamino)-2-oxo-N-[2-(pyridine-3-yl)ethyl]-1,2-dihydroquinoline-3-carboxamide] was tested, and the IC50 [1, 3] was 44.7 nM and the MIC [2] was greater than 8 µg/mL.

For `CNc1cc(F)cc2cc(C(=O)Nc3ccc(C(=O)NCCN)cc3)c(=O)[nH]c12.Cl` [Example 68, N-(4-[(2-aminoethyl)carbamoyl]phenyl}-6-fluoro-8-(methylamino)-2-oxo-1,2-dihydroquinoline-3-carboxamide-hydrochloride], the IC50 [1] was 9.4 nM and the MIC [2] was greater than 8 µg/mL.

Work on `CNc1cccc2cc(C(=O)NC3CCN(c4ncc(C(=O)O)s4)C3)c(=O)[nH]c12` (centres unmarked) [Example 9, 2-(3-{[8-(methylamino)-2-oxo-1,2-dihydroquinoline-3-carbonyl]amino}pyrrolidine-1-yl)-1,3-thiazole-5-carboxylic acid] yielded an IC50 [1, 3] of 51.7 nM and an MIC [2] greater than 64 µg/mL.

`CNc1cccc2cc(C(=O)Nc3cnc(N)s3)c(=O)[nH]c12.Cl` [Example 25, N-(2-Amino-1,3-thiazol-5-yl)-8-(methylamino)-2-oxo-1,2-dihydroquinoline-3-carboxamide-hydrochloride] was tested, and the IC50 [1] was 65.4 nM and the MIC [2] was greater than 16 µg/mL.

`CNc1cccc2cc(C(=O)Nc3cnc(N4CCC(N5CCN(CCO)CC5)CC4)nc3)c(=O)[nH]c12` [Example 42, N-(2-{4-[4-(2-hydroxyethyl)piperazine-1-yl]piperidine-1-yl}pyrimidine-5-yl)-8-(methylamino)-2-oxo-1,2-dihydroquinoline-3-carboxamide] showed an IC50 [1, 3] of 73.6 nM and an MIC [2] greater than 64 µg/mL.

`CNc1cccc2cc(C(=O)Nc3cnc(NC(=O)OC(C)(C)C)s3)c(=O)[nH]c12` [Example 24, tert-butyl(5-{[8-(methylamino)-2-oxo-1,2-dihydroquinoline-3-carbonyl]amino}-1,3-thiazole-2-yl)carbamate] showed an IC50 [1, 3] of 641 nM and an MIC [2] greater than 32 µg/mL.
